This note sets out measurements from EP2114888B1, “TRICYCLIC COMPOUNDS AND THEIR USE AS GLUCOCORTICOID RECEPTOR MODULATORS” (priority 2007, dated 2008).

One data set concerns IL-6. As to the kind of experiment: IL-1β-stimulated IL-6 production in A549 lung epithelial cells. The class given is cell-based, Human. The following applies: A549 cells; Prednisolone (1 µM) = 100% inhibition control. As for the experimental part:
Human A549 lung epithelial cells (American Type Culture Collection, Rockville, MD) were cultured in Kaighn's F-12K medium with penicillin-streptomycin (10 U/mL) and 10% heat-inactivated fetal bovine serum (all from Invitrogen, Grand Island, NY). A549 cells were plated at a density of 30,000 cells/well in 96-well plates and incubated overnight at 37°C and with 5% CO2. The cells were serum-starved by replacing the growth medium with serum-free Kaighn's F-12K medium with penicillin-streptomycin (10 U/mL) and, again, incubating overnight at 37°C and with 5% CO2. On the third day, the medium was replaced with fresh serum-free medium and the cells were incubated with or without compound (vehicle was DMSO at 0.1 % maximum concentration) for approximately 1 hour and then stimulated with 1 ng/mL recombinant human IL-1β (R&D Systems, Minneapolis, MN) for 20 hours at 37°C and with 5% CO2. Cell supernatants were collected for determination of IL-6 levels using MSD (Meso Scale Discovery, Gaithersburg, MD) 96-well Single Spot plates as per the manufacturer's instructions. Plates were read with an MSD Sector Imager 6000. […] Percent inhibition for each compound concentration, relative to these controls, was calculated using Excel (Microsoft, Redmond, WA). IC50 values were generated using GraFit 5.0 data analysis software (Erithacus Software Ltd., Surrey, UK).

The subject of data set [1] is TNFα. The data set is described as follows: LPS-stimulated TNFα production in differentiated U937 cells. The class given is cell-based, Human. The following applies: for TNFα % Inhibition: U937 cells. As for the experimental part:
Human U937 pre-monocytic cells (American Type Culture Collection, Rockville, MD) were cultured in RPMI 1640 with glutamine (2 mM), penicillin-streptomycin (10 U/mL) and 10% heat-inactivated fetal bovine serum (all from Invitrogen, Grand Island, NY). Cells were differentiated to a monocyte/macrophage phenotype with phorbol 12-myristate 13-acetate (Sigma-Aldrich, St. Louis, MO), 20 ng/mL, overnight. The cells were then centrifuged, the medium aspirated, the cells resuspended in an equal volume of fresh RPMI 1640 medium with glutamine and penicillin-streptomycin and fetal bovine serum as listed above, and incubated for 48 hours at 37°C and with 5% CO2. Following recovery, the cells were scraped, counted, and plated in accordance to the experimental design prior to stimulation with LPS, as described below.
U937 cells were differentiated and plated at a density of 200,000 cells/well in 96-well plates. Cells were incubated with or without compound (vehicle was DMSO at 1% maximum concentration) for approximately one hour and then stimulated with 100 ng/mL lipopolysaccharide (LPS), E. coli serotype 0111:B4 (Sigma-Aldrich, St. Louis, MO) for four hours at 37°C and with 5% CO2. Cell supernatants were collected for determination of TNFα levels using an in-house sandwich-type ELISA. Mouse anti-human TNFα monoclonal antibody (clone 28401.111) and biotinylated goat anti-human TNFα (R&D Systems, Minneapolis, MN) were used as the capture and detection antibodies, respectively. Streptavidin-horseradish peroxidase (HRP) (R&D Systems, Minneapolis, MN) and K-Blue Substrate/Red Stop (Neogen, Lexington, KY) were used as the detection system. Absorbance was measured at 650 nm. TNFα concentrations were interpolated from a human TNFα recombinant protein (R&D Systems, Minneapolis, MN) standard curve using a four parameter logistics model by Magellan 4.11 data analysis software (Tecan, Durham, NC). […] Vehicle was used to define the 0% inhibition control. Percent inhibition for each concentration of compound, relative to these controls, was calculated using Excel (Microsoft, Redmond, WA). IC50 values were generated using LabStats Fit Curve V4.R7.MO data analysis software (Pfizer Sandwich Laboratories, UK and Tessella Support Services plc, Abingdon UK).

For data set [2], the system named is Mouse Collagen-induced arthritis (mCIA). As to the kind of experiment: Therapeutic mouse collagen-induced arthritis (mCIA) model. The class given is in vivo, Male DBA/J mice. The following applies: for Therapeutic mCIA (ED80 dose): dosing day 34 through day 49. From the text:
Mouse Collagen-induced arthritis is a commonly used chronic, preclinical model of rheumatoid arthritis in which joint swelling and bone destruction occur following immunization with type II collagen. Reduction of disease incidence and severity has been shown previously to be predictive of disease-modification and signs and symptoms mitigation, respectively, in a clinical setting. In the therapeutic mCIA model, induction of disease incidence and severity was synchronized via LPS stimulation. Male DBA/J mice were immunized with 100 ug of bovine type II collagen (bCII) on day 0. […] Dosing of compounds was initiated in the therapeutic mode on day 34 and continued through day 49. Different treatments were compared by measuring the decrease in incidence (i.e., resolution of disease) and the decrease in severity of paw swelling over time.

Data set [3] has as its system TNFα. The data set is described as follows: LPS-induced serum TNFα suppression, 28-day repeat dose mouse model. The class given is in vivo, Swiss Webster female mice. The conditions noted are these: for TNFα Suppression (ED80 dose): oral gavage, 28 days, LPS-induced serum TNFα. As for the experimental part: (§1) The compounds were weighed and suspended in a vehicle of 0.5% methylcellulose/0.025% tween 20 (Sigma-Aldrich, St. Louis, MO). Compound suspensions were homogenized using a Polytron PT-3100 tissue homogenizer to create a very fine suspension and were then sonicated for 10 minutes using a water bath sonicator. Aliquots of each suspension were made for daily dosing at 0.2 ml/dose. Swiss Webster female mice, 10-12 weeks old, 28-29 grams, (Taconic, Germantown, NY) were used in accordance with the guidelines of the Institutional Animal Care and Use Committee and in accordance with NIH guidelines on laboratory animal welfare. Mice were acclimated in the Pfizer animal facility for three to seven days prior to being utilized in a study. […] Each treatment group contained 5-10 mice. To establish a dosing regimen for the studies, a pilot pharmacodynamic time course experiment was conducted to quantify TNFα repression after a single ED80 dose.
(§2) Body weights were measured on the first and last day of each experiment. Blood samples were obtained after three weeks of dosing for a steady-state pharmacokinetic (PK) analysis. To assess compound effects on LPS-induced TNFα, all mice received an intraperitoneal injection of LPS (Salmonella typhosa, L-7895; Sigma-Aldrich, St. Louis,) 2.5 hr after the last dose on day 28. Mice were sacrificed 90 minutes after LPS administration. Serum samples were quantified for osteocalcin and TNFα using the multiplex assays (Linco Research, Inc, St. Charles, MO; Luminex 100, Austin, TX). Samples were diluted 1:20 and the assay was run according to manufacturer's instructions. The osteocalcin standard was purchased separately (Biomedical Technologies Inc., Stoughton, MA). Mice were fasted for 4 hours before serum was collected for TNFα, and osteocalcin levels. For each experiment, outliers were detected by calculating the number of standard deviations from the mean of the group. If the value being examined was more than 2.5 standard deviations from the mean, it was excluded from the rest of the calculations.
(§3) The individual mouse percent inhibition values were fit to a four-parameter logistic model using the dose mean for each group.
(§4) ED50 and ED80 values were obtained for the various endpoints using a four-parameter logistic fit. For compounds which were tested multiple times, ED50 and ED80 values were obtained using four-parameter logistic fits of the combined data from multiple experiments.

The nature of data set [4]: Serum osteocalcin suppression, 28-day repeat dose mouse model. The following applies: in vivo, po. The method, then: as §1, §2, §3, §4
A further data set relates to osteocalcin. The data set is described as above. The conditions noted are these: in vivo, po. As for the experimental part: as §1, §2, §3, §4
Setting [5] is: Prednisolone (1 µM) = 100% inhibition control.

Structures can show the parent of a compound that is named as a salt.

`Cc1ncccc1CNC(=O)c1ccc2c(c1)CC[C@@H]1C[C@@](O)(CCC(F)(F)F)CC[C@@]21Cc1ccccc1` [Comparator A, (4βS,7S,8αR)-4β-benzyl-7-hydroxy-N-((2-methylpyridin-3-yl)methyl)-7-(3,3,3-trifluoropropyl)-4β,5,6,7,8,8α,9,10-octahydrophenanthrene-2-carboxamide, reference compound]: the “IL-6 % Inhibition” value in the data set with IL-6 is reported as 59.9%. In the data set on TNFα [1] (setting [5]), the “TNFα % Inhibition” value is 35%.
For `Cc1cnc(NC(=O)c2ccc3c(c2)CC[C@@H]2C[C@@](O)(C(F)(F)F)CC[C@@]32Cc2ccccc2)c(C)n1` [Comparator B, (4βS,7R,8αR)-4β-benzyl-N-(3,5-dimethylpyrazin-2-yl)-7-hydroxy-7-(trifluoromethyl)-4α,5,6,7,8,8α,9,10-octahydrophenanthrene-2-carboxamide], the “IL-6 % Inhibition” value in the data set with IL-6 turned out to be 75.8%. For the same compound, in data set [2], the “Therapeutic mCIA (ED80 dose)” value is over 10 mg/kg. For the same compound, the “TNFα Suppression (ED80 dose)” value with TNFα [3] is 2.91 mg/kg.
Turning to `Cc1ncccc1NC(=O)c1ccc2c(c1)CC[C@@H]1C[C@@](O)(CCC(F)(F)F)CC[C@@]21Cc1ccccc1` [Comparator C, (4βS,7S,8αR)-4β-benzyl-7-hydroxy-N-(2-methylpyridin-3-yl)-7-(3,3,3-trifluoropropyl)-4β,5,6,7,8,8α,9,10-octahydrophenanthrene-2-carboxamide], in the data set with IL-6, the “IL-6 % Inhibition” value is recorded as 82.6%. The “Therapeutic mCIA (ED80 dose)” value in data set [2] is over 10 mg/kg. Also, the “TNFα Suppression (ED80 dose)” value in the data set with TNFα [3] is reported as 1.33 mg/kg.
`Cc1ccncc1NC(=O)c1ccc2c(c1)CC[C@@H]1C[C@@](O)(C(F)(F)F)CC[C@@]21Cc1ccccc1` [Comparator D, (4βS,7R,8αR)-4β-benzyl-7-hydroxy-N-(4-methylpyridin-3-yl)-7-(trifluoromethyl)-4,5,6,7,8,8α,9,10-octahydrophenanthrene-2-carboxamide]: in the data set on IL-6, the “IL-6 % Inhibition” value stood at 79.8%. The “TNFα Suppression (ED80 dose)” value with TNFα [3] is over 20 mg/kg.
Regarding `Cc1ncccc1NC(=O)c1ccc2c(c1)C(=O)C[C@@H]1C[C@@](O)(C(F)(F)F)CC[C@@]21Cc1ccccc1` [Comparator E, (4βS,7R,8αS)-4β-benzyl-7-hydroxy-N-(2-methylpyridin-3-yl)-10-oxo-7-(trifluoromethyl)-4α,5,6,7,8,8α,9,10-octahydrophenanthrene-2-carboxamide], the “IL-6 % Inhibition” value with IL-6 was found to be 79.7%. Further, the “Therapeutic mCIA (ED80 dose)” value in data set [2] amounted to 2.6 mg/kg. The “TNFα Suppression (ED80 dose)” value with TNFα [3] was determined as 1.18 mg/kg.
Taken in the same sequence, the figures for `Cc1ncccc1NC(=O)c1ccc2c(c1)[C@H](O)C[C@@H]1C[C@@](O)(C(F)(F)F)CC[C@@]21Cc1ccccc1` [Comparator F, (4βS,7R,8αR,10R)-4β-benzyl-7,10-dihydroxy-N-(2-methylpyridin-3-yl)-7-(trifluoromethyl)-4β,5,6,7,8,8α,9,10-octahydrophenanthrene-2-carboxamide] were 83.3%, over 10 mg/kg and 5.67 mg/kg.
Regarding `Cc1ncccc1NC(=O)c1ccc2c(c1)CC[C@@H]1C[C@@](O)(C(F)F)CC[C@@]21Cc1ccccc1` [Comparator H, (4βS,7R,8αR)-4β-benzyl-7-(difluoromethyl)-7-hydroxy-N-(2-methylpyridin-3-yl)-4α,5,6,7,8,8α,9,10-octahydrophenanthrene-2-carboxamide], the “IL-6 % Inhibition” value in the data set on IL-6 is given as 64.9%. Besides, in the data set on TNFα [3], the “TNFα Suppression (ED80 dose)” value was found to be 0.72 mg/kg.
Turning to `Cc1ncccc1NC(=O)c1ccc2c(c1)C=C[C@@H]1C[C@@](O)(C(F)(F)F)CC[C@@]21Cc1ccccc1` [Comparator I, (4βS,7R,8αS)-4β-benzyl-7-hydroxy-N-(2-methylpyridin-3-yl)-7-(trifluoromethyl)-4β,5,6,7,8,8α-hexahydrophenanthrene-2-carboxamide], the “IL-6 % Inhibition” value in the data set on IL-6 came out at 67.5%. In addition, in data set [2], the “Therapeutic mCIA (ED80 dose)” value is over 20 mg/kg. In the data set with TNFα [3], the “TNFα Suppression (ED80 dose)” value was found to be 5.45 mg/kg.
In the same order, the values of `Cc1ncc(NC(=O)c2ccc3c(c2)CC[C@@H]2C[C@@](O)(CCC(F)(F)F)CC[C@@]32Cc2ccccc2)c(C)n1` [Comparator J, (4βS,7S,8αR)-4β-benzyl-N-(2,4-dimethylpyrimidin-5-yl)-7-hydroxy-7-(3,3,3-trifluoropropyl)-4β,5,6,7,8,8α,9,10-octahydrophenanthrene-2-carboxamide] are 55%, over 20 mg/kg and 0.79 mg/kg.
As for `Cc1ncccc1NC(=O)c1ccc2c(c1)CC[C@@H]1C[C@@](O)(C(F)(F)F)CC[C@@]21Cc1ccccc1` [Example 1 HCL salt, (4βS,7R,8αR)-4β-benzyl-7-hydroxy-N-(2-methylpyridin-3-yl)-7-(trifluoromethyl)-4β,5,6,7,8,8α,9,10-octahydrophenanthrene-2-carboxamide], the “IL-6 % Inhibition” value with IL-6 is given as 76.9%. Moreover, the “TNFα % Inhibition” value in the data set with TNFα [1] (setting [5]) amounted to 77.1%; in the data set on TNFα [1] (additional result (footnote a)), 62%.
One may read the inhibition as the drop in the measured response relative to a control, in per cent. By ED50 is commonly meant the dose that gives a 50% effect, or the effect in half of the subjects. As to `C[C@]12C=CC(=O)C=C1CC[C@@H]1[C@@H]2[C@@H](O)C[C@@]2(C)[C@H]1CC[C@]2(O)C(=O)CO` [Prednisolone, reference compound], the inhibition at 1 µM with TNFα [1] (Homo sapiens, U-937, read-out: TNFα % Inhibition) was determined as 100%. In addition, the ED80 in data set [2] (Mus musculus, read-out: Therapeutic mCIA (ED80 dose)) came out at 5.5 mg/kg; with TNFα [3] (Mus musculus, po, 672 h, read-out: TNFα Suppression (ED80 dose)), 2.1 mg/kg. For the same compound, the ED50 in data set [4] was 1 mg/kg. Moreover, the “Osteocalcin Suppression (ED80 dose)” value in the data set on osteocalcin was 6.80 mg/kg.
